Measured values reported in the NIST ThermoML archive (doi:10.1021/je800653d).

Test: xn = mol fraction of the nth substance listed
Conditions: 101 kPa, Liquid; for viscosity: Capillary tube (Ostwald / Ubbelohde) method; for speed of sound: Linear variable-path acoustic interferometer

O=S1(=O)CCCC1 [sulfolane] + CCCCOC(C)=O
Conditions | mass density, 303.15 K [kg/m3] | mass density, 308.15 K [kg/m3] | mass density, 313.15 K [kg/m3] | speed of sound, 303.15 K [m/s] | speed of sound, 308.15 K [m/s] | speed of sound, 313.15 K [m/s] | viscosity, 303.15 K [mPa·s] | viscosity, 308.15 K [mPa·s] | viscosity, 313.15 K [mPa·s]
x1 = 0.0311 | 880.8 | 876.9 | 871.8 | 1182 | 1164 | 1146 | 0.6426 | 0.6016 | 0.5637
x1 = 0.1903 | 932.3 | 928.6 | 923.5 | 1232 | 1212 | 1193 | 0.895 | 0.8248 | 0.7699
x1 = 0.3402 | 985.2 | 980.9 | 975.4 | 1280 | 1261 | 1245 | 1.242 | 1.145 | 1.066
x1 = 0.474 | 1036.1 | 1030.9 | 1025.4 | 1327 | 1316 | 1301 | 1.722 | 1.577 | 1.457
x1 = 0.5789 | 1078.5 | 1072.7 | 1067.1 | 1372 | 1366 | 1354 | 2.3 | 2.082 | 1.903
x1 = 0.6793 | 1120.5 | 1114.4 | 1108.8 | 1424 | 1418 | 1408 | 3.027 | 2.717 | 2.471
x1 = 0.7887 | 1168.2 | 1162.1 | 1156.6 | 1477 | 1468 | 1466 | 4.275 | 3.837 | 3.436
x1 = 0.8876 | 1212.2 | 1207.1 | 1201.5 | 1528 | 1520 | 1510 | 6.2 | 5.499 | 4.902
x1 = 0.9836 | 1254.2 | 1250.1 | 1244.8 | 1577 | 1572 | 1556 | 9.049 | 7.925 | 6.987
x1 = 1 | 1261.8 | 1257 | 1251.6 | 1588 | 1576 | 1558 | 10.03 | 8.795 | 7.837

O=S1(=O)CCCC1 [sulfolane] + CCOC(C)=O
Conditions | mass density [kg/m3] | speed of sound [m/s] | viscosity [mPa·s]
298.15 K, x1 = 1 | 1263.9 | 1601 | –
303.15 K, x1 = 0.0218 | 897.8 | 1134 | 0.4006
303.15 K, x1 = 0.1511 | 950.7 | 1196 | 0.5566
303.15 K, x1 = 0.2748 | 1001.1 | 1251 | 0.7832
303.15 K, x1 = 0.4012 | 1052.3 | 1313 | 1.118
303.15 K, x1 = 0.5068 | 1094 | 1366 | 1.5
303.15 K, x1 = 0.598 | 1127.6 | 1408 | 2.054
303.15 K, x1 = 0.7331 | 1175.4 | 1472 | 3.211
303.15 K, x1 = 0.8548 | 1215.5 | 1524 | 5.285
303.15 K, x1 = 0.9799 | 1255.5 | 1579 | 9.205
303.15 K, x1 = 1 | 1261.8 | 1588 | 10.03
308.15 K, x1 = 0.0218 | 893.2 | 1121 | 0.3819
308.15 K, x1 = 0.1511 | 947.1 | 1185 | 0.5275
308.15 K, x1 = 0.2748 | 997.7 | 1241 | 0.73
308.15 K, x1 = 0.4012 | 1048.8 | 1301 | 1.042
308.15 K, x1 = 0.5068 | 1090.3 | 1355 | 1.394
308.15 K, x1 = 0.598 | 1123.9 | 1398 | 1.882
308.15 K, x1 = 0.7331 | 1171.5 | 1465 | 2.923
308.15 K, x1 = 0.8548 | 1211.6 | 1515 | 4.756
308.15 K, x1 = 0.9799 | 1251.9 | 1569 | 8.078
308.15 K, x1 = 1 | 1257 | 1576 | 8.795
313.15 K, x1 = 0.0218 | 885.1 | 1092 | 0.3633
313.15 K, x1 = 0.1511 | 939.5 | 1154 | 0.4961
313.15 K, x1 = 0.2748 | 989.9 | 1216 | 0.6874
313.15 K, x1 = 0.4012 | 1040.5 | 1283 | 0.9781
313.15 K, x1 = 0.5068 | 1082.1 | 1346 | 1.292
313.15 K, x1 = 0.598 | 1116.7 | 1397 | 1.752
313.15 K, x1 = 0.7331 | 1164.7 | 1464 | 2.7
313.15 K, x1 = 0.8548 | 1205.5 | 1513 | 4.281
313.15 K, x1 = 0.9799 | 1245.8 | 1555 | 7.092
313.15 K, x1 = 1 | 1251.6 | 1558 | 7.837

O=S1(=O)CCCC1 [sulfolane] + CCCOC(C)=O
Conditions | mass density, 303.15 K [kg/m3] | mass density, 308.15 K [kg/m3] | mass density, 313.15 K [kg/m3] | speed of sound, 303.15 K [m/s] | speed of sound, 308.15 K [m/s] | speed of sound, 313.15 K [m/s] | viscosity, 303.15 K [mPa·s] | viscosity, 308.15 K [mPa·s] | viscosity, 313.15 K [mPa·s]
x1 = 0.0247 | 886.9 | 881.9 | 875.7 | 1154 | 1147 | 1134 | 0.5146 | 0.4827 | 0.4554
x1 = 0.1746 | 941.4 | 935.8 | 929.8 | 1214 | 1203 | 1189 | 0.726 | 0.6764 | 0.6342
x1 = 0.311 | 992.9 | 986.9 | 981.3 | 1266 | 1257 | 1243 | 1.019 | 0.9439 | 0.8781
x1 = 0.4416 | 1043.1 | 1037.9 | 1032.4 | 1322 | 1312 | 1301 | 1.438 | 1.325 | 1.222
x1 = 0.5468 | 1084.6 | 1079.6 | 1074 | 1368 | 1359 | 1352 | 1.922 | 1.762 | 1.617
x1 = 0.6489 | 1124.9 | 1120.1 | 1114.1 | 1419 | 1410 | 1401 | 2.624 | 2.375 | 2.176
x1 = 0.7639 | 1169.5 | 1164.7 | 1159.4 | 1474 | 1469 | 1458 | 3.92 | 3.502 | 3.185
x1 = 0.8733 | 1212.3 | 1207.6 | 1202.2 | 1530 | 1521 | 1510 | 5.863 | 5.217 | 4.662
x1 = 0.9823 | 1255.4 | 1251 | 1245.4 | 1579 | 1573 | 1555 | 9.305 | 8.132 | 7.222
x1 = 1 | 1261.8 | 1257 | 1251.6 | 1588 | 1576 | 1558 | 10.03 | 8.795 | 7.837
